Measurements reported in PubChem BioAssay AID1963959 (Molecular Pharmacology Branch, DTP, NCI, 2024).
“And” between values parts separate entries of the source, which are not always exact repeats. Equal values may be shown once.

Test system: T-47D spheroids with HUVEC/MSC, viability
Test: Anticancer human tumor T-47D cell line growth inhibition [PI3K];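 also: spheroids exposed to agents for seven days before reading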;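 as to viability, T/C: percent of DMSO vehicle control luminescence so 100% = untreated growth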
Details: for viability, T/C: stronger effect = lower value
In short: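 High-throughput combination screen: PI3K inhibitors crossed with targeted small molecules on complex spheroids of tumor cells, HUVEC and MSCs at 37 degrees C, 5% CO2. Top concentration was at or near clinical Cmax (otherwise 10 microM), with half-log decrements.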

[1] = curve of first compound, second compound 0.00316 µM
[2] = curve of first compound, second compound 0.01 µM
[3] = curve of first compound, second compound 0.0316 µM
[4] = curve of first compound, second compound 0.1 µM
[5] = curve of first compound, second compound 0.316 µM
[6] = curve of first compound, second compound 1 µM
[7] = second compound 0.00316 µM, first compound 0.0316 µM
[8] = second compound 0.00316 µM, first compound 0.1 µM
[9] = second compound 0.00316 µM, first compound 0.316 µM
[10] = second compound 0.00316 µM, first compound 1 µM
[11] = second compound 0.00316 µM, first compound 3.16 µM
[12] = second compound 0.00316 µM, first compound 10 µM
[13] = second compound 0.01 µM, first compound 0.0316 µM
[14] = second compound 0.01 µM, first compound 0.1 µM
[15] = second compound 0.01 µM, first compound 0.316 µM
[16] = second compound 0.01 µM, first compound 1 µM
[17] = second compound 0.01 µM, first compound 3.16 µM
[18] = second compound 0.01 µM, first compound 10 µM
[19] = second compound 0.0316 µM, first compound 0.0316 µM
[20] = second compound 0.0316 µM, first compound 0.1 µM
[21] = second compound 0.0316 µM, first compound 0.316 µM
[22] = second compound 0.0316 µM, first compound 1 µM
[23] = second compound 0.0316 µM, first compound 3.16 µM
[24] = second compound 0.0316 µM, first compound 10 µM
[25] = second compound 0.1 µM, first compound 0.0316 µM
[26] = second compound 0.1 µM, first compound 0.1 µM
[27] = second compound 0.1 µM, first compound 0.316 µM
[28] = second compound 0.1 µM, first compound 1 µM
[29] = second compound 0.1 µM, first compound 3.16 µM
[30] = second compound 0.1 µM, first compound 10 µM
[31] = second compound 0.316 µM, first compound 0.0316 µM
[32] = second compound 0.316 µM, first compound 0.1 µM
[33] = second compound 0.316 µM, first compound 0.316 µM
[34] = second compound 0.316 µM, first compound 1 µM
[35] = second compound 0.316 µM, first compound 3.16 µM
[36] = second compound 0.316 µM, first compound 10 µM
[37] = second compound 1 µM, first compound 0.0316 µM
[38] = second compound 1 µM, first compound 0.1 µM
[39] = second compound 1 µM, first compound 0.316 µM
[40] = second compound 1 µM, first compound 1 µM
[41] = second compound 1 µM, first compound 3.16 µM
[42] = second compound 1 µM, first compound 10 µM

For `CC1(C)CCC(CN2CCN(c3ccc(C(=O)NS(=O)(=O)c4ccc(NCC5CCOCC5)c([N+](=O)[O-])c4)c(Oc4cnc5[nH]ccc5c4)c3)CC2)=C(c2ccc(Cl)cc2)C1` + CC(Nc1ccc2c(c1)OCCn1cc(N3C(=O)OCC3C(F)F)nc1-2)C(N)=O, the IC50 [1] was > 10 µM, the IC50 [2] was > 10 µM and the IC50 [3] was > 10 µM. The IC50 [4] was > 10 µM, the IC50 [5] was > 10 µM and the IC50 [6] was 4.16 µM. It also gave a viability, T/C [7] of 101%, a viability, T/C [8] of 97.2% and a viability, T/C [9] of 98.9%. The viability, T/C [10] was 89.8%, the viability, T/C [11] was 76.3% and the viability, T/C [12] was 78.9%. It also gave a viability, T/C [13] of 90.1%, a viability, T/C [14] of 81.5% and a viability, T/C [15] of 93.7%. For the same compound, the viability, T/C [16] was 91.6%, the viability, T/C [17] was 79.5% and the viability, T/C [18] was 69.7%. It also gave a viability, T/C [19] of 87.3%, a viability, T/C [20] of 94% and a viability, T/C [21] of 103%. The viability, T/C [22] was 75.5%, the viability, T/C [23] was 87% and the viability, T/C [24] was 65.5%. The viability, T/C [25] was 77.6%, the viability, T/C [26] was 76.3% and the viability, T/C [27] was 89.6%. The viability, T/C [28] was 87.5%, the viability, T/C [29] was 89.5% and the viability, T/C [30] was 53.4%. For the same compound, the viability, T/C [31] was 65.5%, the viability, T/C [32] was 79.2% and the viability, T/C [33] was 69.7%. For the same compound, the viability, T/C [34] was 61.4%, the viability, T/C [35] was 72.9% and the viability, T/C [36] was 52.1%. For the same compound, the viability, T/C [37] was 52.9%, the viability, T/C [38] was 54.5% and the viability, T/C [39] was 61%. For the same compound, the viability, T/C [40] was 57.2%, the viability, T/C [41] was 53% and the viability, T/C [42] was 38.3%.
For `CNC(=O)c1ccc(N2C(=S)N(c3ccc(C#N)c(C(F)(F)F)c3)C(=O)C2(C)C)cc1F` + COc1c(OCCCN2CCOCC2)ccc2c3n(c(=NC(=O)c4cnc(N)nc4)nc12)CCN3, the IC50 [1] was > 10 µM, the IC50 [2] was > 10 µM and the IC50 [3] was > 10 µM. For the same compound, the IC50 [4] was < 0.0316 µM, the IC50 [5] was < 0.0316 µM and the IC50 [6] was < 0.0316 µM. For the same compound, the viability, T/C [7] was 122%, the viability, T/C [8] was 84.3% and the viability, T/C [9] was 87.8%. The viability, T/C [10] was 81.1%, the viability, T/C [11] was 98.8% and the viability, T/C [12] was 86.5%. For the same compound, the viability, T/C [13] was 102%, the viability, T/C [14] was 90.3% and the viability, T/C [15] was 105%. The viability, T/C [16] was 104%, the viability, T/C [17] was 81.3% and the viability, T/C [18] was 91.2%. The viability, T/C [19] was 72.3%, the viability, T/C [20] was 80% and the viability, T/C [21] was 72.1%. The viability, T/C [22] was 69.1%, the viability, T/C [23] was 64.4% and the viability, T/C [24] was 62%. For the same compound, the viability, T/C [25] was 37.6%, the viability, T/C [26] was 44.8% and the viability, T/C [27] was 40%. For the same compound, the viability, T/C [28] was 46%, the viability, T/C [29] was 37.2% and the viability, T/C [30] was 43.8%. For the same compound, the viability, T/C [31] was 18.9%, the viability, T/C [32] was 21.8% and the viability, T/C [33] was 16.7%. For the same compound, the viability, T/C [34] was 19.6%, the viability, T/C [35] was 18.1% and the viability, T/C [36] was 14.9%. The viability, T/C [37] was 5.78%, the viability, T/C [38] was 6.91% and the viability, T/C [39] was 7.72%. The viability, T/C [40] was 3.81%, the viability, T/C [41] was 3.1% and the viability, T/C [42] was 4.67%.
With `Cn1ncnc1[C@H]1c2n[nH]c(=O)c3cc(F)cc(c23)N[C@@H]1c1ccc(F)cc1` + CC(Nc1ccc2c(c1)OCCn1cc(N3C(=O)OCC3C(F)F)nc1-2)C(N)=O the IC50 [1] was > 0.1 µM, the IC50 [2] was > 0.1 µM and the IC50 [3] was > 0.1 µM. The IC50 [4] was > 0.1 µM, the IC50 [5] was > 0.1 µM and the IC50 [6] was > 0.1 µM. For the same compound, the viability, T/C (second compound 0.00316 µM, first compound 0.000316 µM) was 88.8%, the viability, T/C (second compound 0.00316 µM, first compound 0.001 µM) was 82.8% and the viability, T/C (second compound 0.00316 µM, first compound 0.00316 µM) was 109%. It also gave a viability, T/C (second compound 0.00316 µM, first compound 0.01 µM) of 86.9%, a viability, T/C [7] of 96.3% and a viability, T/C [8] of 112%. The viability, T/C (second compound 0.01 µM, first compound 0.000316 µM) was 113%, the viability, T/C (second compound 0.01 µM, first compound 0.001 µM) was 78.7% and the viability, T/C (second compound 0.01 µM, first compound 0.00316 µM) was 80.3%. For the same compound, the viability, T/C (second compound 0.01 µM, first compound 0.01 µM) was 96.2%, the viability, T/C [13] was 91.3% and the viability, T/C [14] was 89.4%. The viability, T/C (second compound 0.0316 µM, first compound 0.000316 µM) was 108%, the viability, T/C (second compound 0.0316 µM, first compound 0.001 µM) was 74.7% and the viability, T/C (second compound 0.0316 µM, first compound 0.00316 µM) was 88.8%. The viability, T/C (second compound 0.0316 µM, first compound 0.01 µM) was 85%, the viability, T/C [19] was 81.2% and the viability, T/C [20] was 75.8%. The viability, T/C (second compound 0.1 µM, first compound 0.000316 µM) was 79.2%, the viability, T/C (second compound 0.1 µM, first compound 0.001 µM) was 76.7% and the viability, T/C (second compound 0.1 µM, first compound 0.00316 µM) was 78.3%. The viability, T/C (second compound 0.1 µM, first compound 0.01 µM) was 81.6%, the viability, T/C [25] was 86.5% and the viability, T/C [26] was 76.2%. The viability, T/C (second compound 0.316 µM, first compound 0.000316 µM) was 77.1%, the viability, T/C (second compound 0.316 µM, first compound 0.001 µM) was 80.1% and the viability, T/C (second compound 0.316 µM, first compound 0.00316 µM) was 57.1%. It also gave a viability, T/C (second compound 0.316 µM, first compound 0.01 µM) of 65.6%, a viability, T/C [31] of 62.3% and a viability, T/C [32] of 61.9%. It also gave a viability, T/C (second compound 1 µM, first compound 0.000316 µM) of 61.5%, a viability, T/C (second compound 1 µM, first compound 0.001 µM) of 48.5% and a viability, T/C (second compound 1 µM, first compound 0.00316 µM) of 54.2%. It also gave a viability, T/C (second compound 1 µM, first compound 0.01 µM) of 58%, a viability, T/C [37] of 55.2% and a viability, T/C [38] of 49.8%.
`C[C@@H](NC(=O)c1ncnc(N)c1Cl)c1ncc(C(=O)Nc2cc(C(F)(F)F)c(Cl)cn2)s1` was tested, and the viability, T/C (compound 0.0316 µM) was 93.7% [middle of 4 runs], the viability, T/C (compound 0.316 µM) was 89.2% and 106% (2×) and 91.6% and the viability, T/C (compound 3.16 µM) was 99.1% [middle of 4 runs]. The viability, T/C (compound 10 µM) was 91% [middle of 4 runs] and the IC50 (curve of compound) was > 10 µM.
